Patent US10544095B2 (Pfizer Inc., priority 2015, dated 2020)

Legend:
[1] = biological target: human recombinant TDO2 enzyme (Homo sapiens (Human), UniProt P48775); test: Assay for TDO2 enzymatic activity determination; format: biochemical; settings: human recombinant TDO2, L-Trp 1 mM, kynurenine absorbance at 480 nm
Experimental: The compounds of formula I, its subformulae, and enantiomers, salts and solvates thereof, are useful to inhibit the enzymatic activity of human TDO2. To measure the TDO2 activity, the procedure described in Dolusic et al. J. Med. Chem.; 2011, 54, […] was adapted: the reaction mixture contained (final concentrations) potassium phosphate buffer (50 mM, pH 7.5), ascorbic acid ([…]), methylene blue (0.125 μM), catalase (40 units/mL, from bovine liver, Sigma), and human recombinant TDO2 enzyme (prepared as described in Dolusic et al. J. Med. Chem.; 2011, 54, 5320-5334; 0.9 μg) without or with the compounds of the present invention at the indicated concentrations (total volume 112.5 μL). The reaction was initiated by the addition of 37.5 μL of L-Trp (final concentration 1 mM) at room temperature. The reaction was conducted at room temperature during one hour and stopped by the addition of 30 μL of 30% (w/v) trichloroacetic acid. To convert N-formylkynurenine into kynurenine, the reaction mixture was incubated at 65° C. for 30 min. […] Kynurenine concentrations were determined by measuring the absorbance at 480 nm. A standard curve was made with pure kynurenine. The TDO activity was measured as described above using ten serial concentrations of the compounds of the present invention. Data were fitted using the Prism™ software (GraphPad Software, Inc.) using standard parameters.

[2] = biological target: hTDO2 in human glioblastoma A172 cells (Homo sapiens (Human), UniProt P48775); test: Cellular assay for TDO2 activity determination in A172 cells; format: cell-based; settings: overnight incubation, kynurenine absorbance at 480 nm
Method in brief: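 Glioblastoma A172 cells with endogenous hTDO2, 1.25×10^4 cells/well, incubated overnight at 37° C. with ten serial compound concentrations in IMDM with 2% FBS. Supernatant kynurenine, after TCA precipitation and 4-(dimethylamino)-benzaldehyde reaction, read at 480 nm against kynurenine standard curve; data curve-fitted.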

Chain of human recombinant TDO2 enzyme (P48775 whole entry): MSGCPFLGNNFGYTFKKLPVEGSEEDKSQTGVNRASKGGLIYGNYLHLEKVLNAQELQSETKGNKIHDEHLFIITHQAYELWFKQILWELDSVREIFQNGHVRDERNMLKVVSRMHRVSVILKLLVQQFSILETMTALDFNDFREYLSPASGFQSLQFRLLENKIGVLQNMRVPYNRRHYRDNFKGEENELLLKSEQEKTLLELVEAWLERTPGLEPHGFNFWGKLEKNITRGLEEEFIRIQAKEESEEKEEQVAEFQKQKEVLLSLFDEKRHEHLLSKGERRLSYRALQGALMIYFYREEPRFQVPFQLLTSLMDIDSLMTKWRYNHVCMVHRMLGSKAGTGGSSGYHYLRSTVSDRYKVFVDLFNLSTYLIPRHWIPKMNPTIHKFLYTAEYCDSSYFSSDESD
Chain of hTDO2 in human glioblastoma A172 cells (P48775 whole entry): as above

| Compound | IC50 [1] [nM] | IC50 [2] [nM] |
| --- | --- | --- |
| NC(=O)COC1CCN(S(=O)(=O)c2ccc(-c3c[nH]c4cc(F)ccc34)cc2)CC1 [Example 84, 2-[(1-{[4-(6-fluoro-1H-indol-3-yl)phenyl]sulfonyl}piperidin-4-yl)-oxy]acetamide] | 1900 | 260 |
| O=S(=O)(c1ccc(-c2c[nH]c3cc(F)ccc23)cc1)N1CC[C@H](O)C1 [Example 79, (S)-1-((4-(6-fluoro-1H-indol-3-yl)phenyl)sulfonyl)-pyrrolidin-3-ol] | 120 | 94 |
| O=S(=O)(c1c(Cl)cc(-c2c[nH]c3cc(F)ccc23)cc1Cl)N1CCNCC1 [Example 76, 3-(3,5-dichloro-4-(piperazin-1-ylsulfonyl)phenyl)-6-fluoro-1H-indole] | 470 | 833 |
| CN1CC(CNS(=O)(=O)c2ccc(-c3c[nH]c4cc(F)ccc34)cc2)OCC1=O (stereo not drawn) [Example 86, 4-(6-fluoro-1H-indol-3-yl)-N-[(4-methyl-5-oxomorpholin-2-yl)methyl]benzenesulfonamide] | 1300 | 260 |
| O=S(=O)(c1cccc(-c2c[nH]c3cc(F)ccc23)c1)N1CCNCC1 [Example 7, 6-fluoro-3-(3-(piperazin-1-ylsulfonyl)phenyl)-1H-indole] | 4400 | 340 |
| O=S(=O)(c1ccc(-c2c[nH]c3cc(F)ccc23)cc1O)N1CCNCC1 [Example 35, 5-(6-fluoro-1H-indol-3-yl)-2-(piperazin-1-ylsulfonyl)phenol] | 420 | 330 |
| O=C1CN(S(=O)(=O)c2ccc(-c3c[nH]c4cc(F)ccc34)cc2)CCN1 [Example 40, 4-((4-(6-fluoro-1H-indol-3-yl)phenyl)sulfonyl)piperazin-2-one] | 930 | 170 |
| O=S(=O)(c1ccc(-c2c[nH]c3cc(F)ccc23)cc1)N1C[C@@H](O)[C@@H](O)C1 [Example 58, (cis)-1-((4-(6-fluoro-1H-indol-3-yl)phenyl)sulfonyl)-pyrrolidine-3,4-diol] | 530 | 130 |
| N[C@H]1CN(S(=O)(=O)c2ccc(-c3c[nH]c4cc(F)ccc34)cc2)C[C@@H]1F [Example 80, (3S,4 S)-4-fluoro-1-{[4-(6-fluoro-1H-indol-3-yl)phenyl]sulfonyl}pyrrolidin-3-amine] | 900 | 170 |
| O=S(=O)(c1ccc(-c2c[nH]c3cc(F)ccc23)cc1)N1CCOCC1 [Example 5, 4-((4-(6-fluoro-1H-indol-3-yl)phenyl)sulfonyl)morpholine] | 4700 | 250 |
| N#Cc1cc(-c2c[nH]c3cc(F)ccc23)ccc1S(=O)(=O)N1CCNCC1 [Example 32, 5-(6-Fluoro-1H-indol-3-yl)-2-(piperazine-1-sulfonyl)-benzonitrile] | 730 | 170 |
| O=S(=O)(c1ccc(-c2c[nH]c3cc(F)ccc23)cc1)N1CC[C@@H](O)C1 [Example 77, (R)-1-((4-(6-fluoro-1H-indol-3-yl)phenyl)sulfonyl)-pyrrolidin-3-ol] | 170 | 55 |
| O=C1CCN(S(=O)(=O)c2ccc(-c3c[nH]c4cc(F)ccc34)cc2)CCN1 [Example 90, 1-((4-(6-fluoro-1H-indol-3-yl)phenyl)sulfonyl)-1,4-diazepan-5-one] | 2000 | 130 |
| Cc1cc(-c2c[nH]c3cc(F)ccc23)ccc1S(=O)(=O)N1CCNCC1 [Example 34, 6-fluoro-3-(3-methyl-4-(piperazin-1-ylsulfonyl)-phenyl)-1H-indole] | 520 | 290 |
| O=S(=O)(c1ccc(-c2c[nH]c3cc(F)ccc23)cc1)N1CCNCC1 [Example 4, 6-fluoro-3-(4-(piperazin-1-ylsulfonyl)phenyl)-1H-indole] | 2100 | 130 |
| O=S(=O)(c1ccc(-c2c[nH]c3cc(F)ccc23)cc1)N1CCC(O)(c2cncnc2)C1 (stereo not drawn) [Example 120, 1-((4-(6-fluoro-1H-indol-3-yl)phenyl)sulfonyl)-3-(pyrimidin-5-yl)pyrrolidin-3-ol] | 120 | 120 |
| O=S1(=O)CCC(NS(=O)(=O)c2ccc(-c3c[nH]c4cc(F)ccc34)cc2)C1 (stereo not drawn) [Example 87, N-(1,1-dioxidotetrahydrothiophen-3-yl)-4-(6-fluoro-1H-indol-3-yl)-benzenesulfonamide] | 930 | 170 |

More lines, now with the values ahead:

| IC50 [1] [nM] | IC50 [2] [nM] | Compound |
| --- | --- | --- |
| 770 | 430 | NCCNS(=O)(=O)c1cc(-c2c[nH]c3cc(F)ccc23)ccc1Cl [Example 36, N-(2-aminoethyl)-2-chloro-5-(6-fluoro-1H-indol-3-yl)-benzenesulfonamide] |
| 960 | 110 | CNC(=O)CCNS(=O)(=O)c1ccc(-c2c[nH]c3cc(F)ccc23)cc1 [Example 50, 3-(4-(6-fluoro-1H-indol-3-yl)phenylsulfonamido)-N-methylpropanamide] |
| 2400 | 83 | NS(=O)(=O)c1cccc(-c2c[nH]c3cc(F)ccc23)c1 [Example 10, 3-(6-fluoro-1H-indol-3-yl)benzenesulfonamide] |
| 1300 | 140 | NC(=O)[C@H]1C[C@@H](NS(=O)(=O)c2ccc(-c3c[nH]c4cc(F)ccc34)cc2)C1 [Example 95, (cis)-3-(4-(6-fluoro-1H-indol-3-yl)phenylsulfon-amido)cyclobutanecarboxamide] |
| 890 | 95 | NCCNS(=O)(=O)c1ccc(-c2c[nH]c3cc(F)ccc23)cc1 [Example 8, N-(2-aminoethyl)-4-(6-fluoro-1H-indol-3-yl)-benzenesulfonamide] |
| 1100 | 150 | NCCNC(=O)c1ccc(-c2c[nH]c3cc(F)ccc23)cc1 [Example 2, N-(2-aminoethyl)-4-(6-fluoro-1H-indol-3-yl)benzamide] |
| 1100 | 300 | O=S(=O)(NCCn1cncn1)c1ccc(-c2c[nH]c3cc(F)ccc23)cc1 [Example 99, 4-(6-fluoro-1H-indol-3-yl)-N-[2-(1H-1,2,4-triazol-1-yl)-ethyl]benzenesulfonamide] |
| 840 | 300 | C[C@H](O)CNS(=O)(=O)c1ccc(-c2c[nH]c3cc(F)ccc23)cc1 [Example 94, (+)-(S)-4-(6-fluoro-1H-indol-3-yl)-N-(2-hydroxypropyl)-benzenesulfonamide] |
| 1500 | 84 | CS(=O)(=O)c1ccc(-c2c[nH]c3cc(F)ccc23)cc1 [Example 1, 6-Fluoro-3-(4-methanesulfonyl-phenyl)-1H-indole] |
| 820 | 100 | NC(=O)[C@H]1C[C@H](NS(=O)(=O)c2ccc(-c3c[nH]c4cc(F)ccc34)cc2)C1 [Example 97, (Trans)-3-(4-(6-fluoro-1H-indol-3-yl)phenyl-sulfonamido)cyclobutanecarboxamide] |
| 740 | 120 | CS(=O)(=O)NCCNS(=O)(=O)c1ccc(-c2c[nH]c3cc(F)ccc23)cc1 [Example 21, 4-(6-fluoro-1H-indol-3-yl)-N-(2-(methylsulfonamido)-ethyl)benzenesulfonamide] |
| 1800 | 240 | NCCNS(=O)(=O)c1cccc(-c2c[nH]c3cc(F)ccc23)c1 [Example 9, N-(2-aminoethyl)-3-(6-fluoro-1H-indol-3-yl)benzenesulfonamide] |
| 550 | 200 | C[C@@H](O)CNS(=O)(=O)c1ccc(-c2c[nH]c3cc(F)ccc23)cc1 [Example 93, (−)-(R)-4-(6-fluoro-1H-indol-3-yl)-N-(2-hydroxypropyl)-benzenesulfonamide] |
| 2100 | 110 | O=C(c1ccc(-c2c[nH]c3cc(F)ccc23)cc1)N1CCNCC1 [Example 3, (4-(6-fluoro-1H-indol-3-yl)phenyl)(piperazin-1-yl)methanone] |
| 1000 | 82 | NS(=O)(=O)c1ccc(-c2c[nH]c3cc(F)ccc23)cc1 [Example 6, 4-(6-fluoro-1H-indol-3-yl)benzenesulfonamide] |
| 1000 | 160 | C[C@H](CO)NS(=O)(=O)c1ccc(-c2c[nH]c3cc(F)ccc23)cc1 [Example 96, 4-(6-fluoro-1H-indol-3-yl)-N-[(2R)-1-hydroxypropan-2-yl]benzenesulfonamide] |
| 940 | 95 | CS(=O)(=O)CCNS(=O)(=O)c1ccc(-c2c[nH]c3cc(F)ccc23)cc1 [Example 88, 4-(6-fluoro-1H-indol-3-yl)-N-[2-(methylsulfonyl)ethyl]-benzene-sulfonamide] |
| 910 | 250 | CN(CCS(N)(=O)=O)S(=O)(=O)c1ccc(-c2c[nH]c3cc(F)ccc23)cc1 [Example 98, 4-(6-fluoro-1H-indol-3-yl)-N-methyl-N-(2-sulfamoylethyl)benzenesulfonamide] |
| 730 | 110 | NC(=O)CCNS(=O)(=O)c1ccc(-c2c[nH]c3cc(F)ccc23)cc1 [Example 26, 3-(4-(6-fluoro-1H-indol-3-yl)phenylsulfonamido)propanamide] |
